Results: US20210292340A1, “CELL NECROSIS INHIBITOR, PREPARATION METHOD THEREFOR AND USE THEREOF” (SHANGHAI INSTITUTE OF ORGANIC CHEMISTRY, CHINESE ACADEMY OF …, priority 2018, published 2021)
Read-outs that look alike come from different tables or passages of the source.

Tests used:
human RIP1 = target: T1, human RIP1 (Homo sapiens, UniProt Q13546); assay: Inhibition of ADP-Glo RIP1 kinase activity; type: biochemical
T1 construct: made in house; host or cells: Sf-9 insect cells
T1 sequence (Q13546 1-671): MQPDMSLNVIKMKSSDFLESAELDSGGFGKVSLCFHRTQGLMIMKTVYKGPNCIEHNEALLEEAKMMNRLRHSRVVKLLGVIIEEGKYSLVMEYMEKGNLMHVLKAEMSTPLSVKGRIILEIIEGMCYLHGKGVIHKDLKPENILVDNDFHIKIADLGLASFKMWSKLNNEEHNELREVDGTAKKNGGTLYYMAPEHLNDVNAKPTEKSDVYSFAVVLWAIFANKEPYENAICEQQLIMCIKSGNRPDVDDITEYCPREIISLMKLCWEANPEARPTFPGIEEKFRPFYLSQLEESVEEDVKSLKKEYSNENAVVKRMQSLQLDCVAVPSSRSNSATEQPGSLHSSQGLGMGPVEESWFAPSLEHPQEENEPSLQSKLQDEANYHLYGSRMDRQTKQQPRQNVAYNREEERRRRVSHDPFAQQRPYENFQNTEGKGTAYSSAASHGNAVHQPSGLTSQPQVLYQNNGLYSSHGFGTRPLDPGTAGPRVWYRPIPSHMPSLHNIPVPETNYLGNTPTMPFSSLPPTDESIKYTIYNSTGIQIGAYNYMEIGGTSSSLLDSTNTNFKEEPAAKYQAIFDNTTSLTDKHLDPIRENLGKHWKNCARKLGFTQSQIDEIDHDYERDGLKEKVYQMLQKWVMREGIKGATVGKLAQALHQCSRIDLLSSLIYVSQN
Description: The human RIP1 gene was transduced into Sf-9 insect cells, and the RIP1 protein was purified by Ni+ affinity chromatography and then by S-200 molecular sieve to remove the protein multimers. The obtained RIP1 protein was stored at −70° C., and the activity of the RIP1 protein in catalyzing autophosphorylation was detected by the ADP-Glo™ Kinase Activity Assay Kit (Promega) and the inhibitory activity of the drug against the RIP1 kinase was determined.
100 nL of the compound was transferred to a 384-well assay plate. Two replicate wells were set for each concentration of each drug.
The RIP1 enzyme solution and ATP solution were formulated in an assay buffer (containing 50 mM HEPES pH 7.5, 30 mM MgCl2, 50 mM NaCl, 1 mM DTT, 0.02% CHAPS, and 0.5 mg/ml BSA). Then, 5 μL of the RIP1 enzyme solution (final concentration 50 nM) was added to the assay plate and incubated at room temperature for 1 h. 5 μL of the ATP solution (final concentration 10 μM) was added to the assay plate, and incubate at room temperature for 4 h. Then 5 μL of ADP-Glo reagent was added to the assay plate, and incubated at room temperature for 60 min. 5 μL of a kinase assay solution was added to the assay plate, and incubated at room temperature for 30 min. After readout on Envision, the inhibition rate in each well was calculated from the full-activity well and the background well, and the Ki of the compound was calculated by GraphPad Prism 7 software (using the Morrision equation to fit the curve and calculate the Ki).

Jurkat (FADD−/−) cells = assay: Inhibition of TNF-induced programmed Jurkat (FADD−/−) cell necrosis (Cell Titer-Glo); type: cell-based, human; details: 20 h, read-out: Cellular IC50 (M) Jurkat (FADD−/−)
Outline: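 FADD-knockout Jurkat cells (5×10^5/mL) preincubated with compound, then given TNF (final 10 ng/mL) for 20 h at 37 °C. ATP measured by Cell Titer-Glo luminescence, normalised to untreated DMSO wells as 100% viability; IC50 from duplicate wells.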

[1] = Homo sapiens, Jurkat, TNF 10 ng/mL, intracellular ATP level

## CN1C(=O)[C@@H](NC(=O)c2cn(Cc3ccccc3)cn2)COc2ccc3ncccc3c21 [RIP1-099]
Human RIP1
  Ki: 37.7 nM
Jurkat (FADD−/−) cells; [1]
  IC50: 6.92e-09 M

## CN1C(=O)[C@@H](NC(=O)c2cc(Cc3ccccc3)on2)COc2cc3[nH]ncc3cc21 [RIP1-021]
Human RIP1
  Ki: 10.3 nM
Jurkat (FADD−/−) cells; [1]
  IC50: 5.8e-10 M

## CN1C(=O)[C@@H](NC(=O)c2ncn(Cc3ccccc3)n2)COc2ccc3cnccc3c21 [RIP1-108]
Human RIP1
  Ki: 12.6 nM
Jurkat (FADD−/−) cells; [1]
  IC50: 1.64e-10 M

## CN1C(=O)[C@@H](NC(=O)c2ncn(Cc3ccccc3)n2)COc2cc3occc3cc21 [RIP1-119]
Human RIP1
  Ki: 19.1 nM
Jurkat (FADD−/−) cells; [1]
  IC50: 5.81e-10 M

## CN1C(=O)[C@@H](NC(=O)c2nnc(Cc3ccccc3)o2)COc2cc3occc3cc21 [RIP1-125]
Human RIP1
  Ki: 19.6 nM
Jurkat (FADD−/−) cells; [1]
  IC50: 8.43e-10 M

## COc1ncnc2cc3c(cc12)N(C)C(=O)[C@@H](NC(=O)c1n[nH]c(Cc2ccccc2)n1)CO3 [RIP1-146]
Human RIP1
  Ki: 13.2 nM
Jurkat (FADD−/−) cells; [1]
  IC50: 1.85e-09 M

## CN1C(=O)[C@@H](NC(=O)c2ncn(Cc3ccccc3)n2)COc2cc3[nH]nc(Cl)c3cc21 [RIP1-032]
Human RIP1
  Ki: 20.3 nM
Jurkat (FADD−/−) cells; Homo sapiens, Jurkat
  IC50: 2.4e-10 M

## Cc1nc2cc3c(cc2[nH]1)OC[C@H](NC(=O)c1cn(Cc2ccccc2)cn1)C(=O)N3C [RIP1-067]
Human RIP1
  Ki: 28.6 nM
Jurkat (FADD−/−) cells; Homo sapiens, Jurkat
  IC50: 6.72e-09 M

## CN1C(=O)[C@@H](NC(=O)c2cc(Cc3ccccc3)on2)COc2cc3[nH]nnc3cc21 [RIP1-142]
Human RIP1
  Ki: 19.1 nM
Jurkat (FADD−/−) cells; [1]
  IC50: 1.86e-09 M

## CN1C(=O)[C@@H](NC(=O)c2cc(Cc3ccccc3)on2)COc2cc3occc3cc21 [RIP1-126]
Human RIP1
  Ki: 25.6 nM
Jurkat (FADD−/−) cells; [1]
  IC50: 2.61e-09 M

## Cc1nc2cc3c(cc2[nH]1)OC[C@H](NC(=O)c1ncn(Cc2ccccc2)n1)C(=O)N3C [RIP1-068]
Human RIP1
  Ki: 42.8 nM
Jurkat (FADD−/−) cells; [1]
  IC50: 7.62e-09 M

## CN1C(=O)[C@@H](NC(=O)c2cn(Cc3ccccc3)nn2)COc2cc3[nH]nc(Cl)c3cc21 [RIP1-035]
Human RIP1
  Ki: 7.8 nM
Jurkat (FADD−/−) cells; [1]
  IC50: 1.94e-09 M

## CN1C(=O)[C@@H](NC(=O)c2cc(Cc3ccccc3)on2)COc2ccc3ncccc3c21 [RIP1-101]
Human RIP1
  Ki: 17.2 nM
Jurkat (FADD−/−) cells; [1]
  IC50: 5.5e-09 M

## CN1C(=O)[C@@H](NC(=O)c2nnn(Cc3ccccc3)n2)COc2cc3nccnc3cc21 [RIP1-131]
Human RIP1
  Ki: 28.6 nM
Jurkat (FADD−/−) cells; [1]
  IC50: 1.29e-09 M

## CN1C(=O)[C@@H](NC(=O)c2cc(Cc3ccccc3)on2)COc2cc3[nH]nc(Cl)c3cc21 [RIP1-033]
Human RIP1
  Ki: 10.8 nM
Jurkat (FADD−/−) cells; [1]
  IC50: 6.8e-10 M

## Cc1nc2cc3c(cc2[nH]1)OC[C@H](NC(=O)c1cc(Cc2ccccc2)on1)C(=O)N3C [RIP1-061]
Human RIP1
  Ki: 44 nM
Jurkat (FADD−/−) cells; [1]
  IC50: 5.86e-09 M

## CN1C(=O)[C@@H](NC(=O)c2cn(Cc3ccccc3)cn2)COc2cc3[nH]nc(Cl)c3cc21 [RIP1-031]
Human RIP1
  Ki: 0.66 nM
Jurkat (FADD−/−) cells; [1]
  IC50: 2.9e-10 M

## CN1C(=O)[C@@H](NC(=O)c2noc(Cc3ccccc3)n2)COc2cc3nccnc3cc21 [RIP1-132]
Human RIP1
  Ki: 19.3 nM
Jurkat (FADD−/−) cells; [1]
  IC50: 4.57e-09 M

## CN1C(=O)[C@@H](NC(=O)c2noc(Cc3ccccc3)n2)COc2cc3occc3cc21 [RIP1-123]
Human RIP1
  Ki: 23.2 nM
Jurkat (FADD−/−) cells; [1]
  IC50: 1.33e-09 M

## CN1C(=O)[C@@H](NC(=O)c2nnc(Cc3ccccc3)o2)COc2cc3nccnc3cc21 [RIP1-134]
Human RIP1
  Ki: 21.9 nM
Jurkat (FADD−/−) cells; [1]
  IC50: 9.03e-09 M

## CN1C(=O)[C@@H](NC(=O)c2nnn(Cc3ccccc3)n2)COc2cc3occc3cc21 [RIP1-122]
Human RIP1
  Ki: 15.6 nM
Jurkat (FADD−/−) cells; [1]
  IC50: 2.26e-10 M

## COc1ncnc2cc3c(cc12)N(C)C(=O)[C@@H](NC(=O)c1cn(Cc2ccccc2)cn1)CO3 [RIP1-147]
Human RIP1
  Ki: 16.5 nM
Jurkat (FADD−/−) cells; [1]
  IC50: 1.69e-09 M

## CN1C(=O)[C@@H](NC(=O)c2nnc(Cc3ccccc3)[nH]2)COc2cc3nccnc3cc21 [RIP1-135]
Human RIP1
  Ki: 21.5 nM
Jurkat (FADD−/−) cells; [1]
  IC50: 4.25e-09 M

## Cc1nc2cc3c(cc2[nH]1)OC[C@@H](NC(=O)c1cncn1Cc1ccccc1)C(=O)N3C (stereo in doubt) [RIP1-069]
Human RIP1
  Ki: 31.3 nM
Jurkat (FADD−/−) cells; [1]
  IC50: 4.52e-09 M

## CN1C(=O)[C@@H](NC(=O)c2nnc(Cc3ccccc3)o2)COc2cc3[nH]nnc3cc21 [RIP1-153]
Human RIP1
  Ki: 12.8 nM
Jurkat (FADD−/−) cells; Homo sapiens, Jurkat
  IC50: 1.52e-09 M

## CN1C(=O)[C@@H](NC(=O)c2nnn(Cc3ccccc3)n2)COc2cc3[nH]nnc3cc21 [RIP1-139]
Human RIP1
  Ki: 20.3 nM
Jurkat (FADD−/−) cells; [1]
  IC50: 7.81e-10 M

## CN1C(=O)[C@@H](NC(=O)c2cn(Cc3ccccc3)nn2)COc2ccc3ncccc3c21 [RIP1-100]
Human RIP1
  Ki: 20.4 nM
Jurkat (FADD−/−) cells; [1]
  IC50: 3.27e-08 M

## CN1C(=O)[C@@H](NC(=O)c2noc(Cc3ccccc3)n2)COc2cc3[nH]nnc3cc21 [RIP1-140]
Human RIP1
  Ki: 50.6 nM
Jurkat (FADD−/−) cells; [1]
  IC50: 1.37e-09 M

## CN1C(=O)[C@@H](NC(=O)c2cn(Cc3ccccc3)nn2)COc2cc3occc3cc21 [RIP1-121]
Human RIP1
  Ki: 32.7 nM
Jurkat (FADD−/−) cells; Homo sapiens, Jurkat
  IC50: 1.37e-08 M

## CN1C(=O)[C@@H](NC(=O)c2nnc(Cc3ccccc3)[nH]2)COc2ccc3cnccc3c21 [RIP1-107]
Human RIP1
  Ki: 8.9 nM
Jurkat (FADD−/−) cells; Homo sapiens, Jurkat
  IC50: 1.07e-09 M

## CN1C(=O)[C@@H](NC(=O)c2ncn(Cc3ccccc3)n2)COc2ccc3ncccc3c21 [RIP1-098]
Human RIP1
  Ki: 20.9 nM
Jurkat (FADD−/−) cells; [1]
  IC50: 7.25e-10 M

## CN1C(=O)[C@@H](NC(=O)c2cn(Cc3ccccc3)cn2)COc2cc3[nH]nnc3cc21 [RIP1-137]
Human RIP1
  Ki: 13.3 nM
Jurkat (FADD−/−) cells; [1]
  IC50: 7.31e-09 M

## CN1C(=O)[C@@H](NC(=O)c2ncn(Cc3ccccc3)n2)COc2cc3[nH]nnc3cc21 [RIP1-136]
Human RIP1
  Ki: 17.8 nM
Jurkat (FADD−/−) cells; [1]
  IC50: 9.34e-09 M

## CN1C(=O)[C@@H](NC(=O)c2cn(Cc3ccccc3)nn2)COc2cc3[nH]nnc3cc21 [RIP1-138]
Human RIP1
  Ki: 19.8 nM
Jurkat (FADD−/−) cells; [1]
  IC50: 1.68e-08 M

## CN1C(=O)[C@@H](NC(=O)c2cn(Cc3ccccc3)cn2)COc2cc3occc3cc21 [RIP1-120]
Human RIP1
  Ki: 20.7 nM
Jurkat (FADD−/−) cells; [1]
  IC50: 2.56e-09 M

## COc1ncnc2cc3c(cc12)N(C)C(=O)[C@@H](NC(=O)c1ncn(Cc2ccccc2)n1)CO3 [RIP1-145]
Human RIP1
  Ki: 10.5 nM
Jurkat (FADD−/−) cells; [1]
  IC50: 4.61e-10 M

## CN1C(=O)[C@@H](NC(=O)c2cn(Cc3ccccc3)cn2)COc2ccc3cnccc3c21 [RIP1-109]
Human RIP1
  Ki: 6.85 nM
Jurkat (FADD−/−) cells; [1]
  IC50: 7.22e-10 M

## CN1C(=O)[C@@H](NC(=O)c2nnc(Cc3ccccc3)[nH]2)COc2cc3occc3cc21 [RIP1-127]
Human RIP1
  Ki: 16.2 nM
Jurkat (FADD−/−) cells; [1]
  IC50: 3.28e-09 M

## Cc1ccc(Cc2cc(C(=O)N[C@H]3COc4cc5nccnc5cc4N(C)C3=O)nn2C)cc1 [RIP1-133]
Human RIP1
  Ki: 23.1 nM
Jurkat (FADD−/−) cells; [1]
  IC50: 5.3e-08 M

## CN1C(=O)[C@@H](NC(=O)c2nnc(Cc3ccccc3)[nH]2)COc2ccc3ncccc3c21 [RIP1-097]
Human RIP1
  Ki: 23.2 nM
Jurkat (FADD−/−) cells; [1]
  IC50: 1.2e-09 M
Jurkat (FADD−/−) cells; TNF 10 ng/mL, intracellular ATP level
  IC50: 2.28e-09 M

## CN1C(=O)[C@@H](NC(=O)c2cn(Cc3ccccc3)nn2)COc2ccc3cnccc3c21 [RIP1-110]
Human RIP1
  Ki: 14.6 nM
Jurkat (FADD−/−) cells; [1]
  IC50: 4.44e-09 M

## CN1C(=O)[C@@H](NC(=O)c2cc(Cc3ccccc3)on2)COc2ccc3cnccc3c21 [RIP1-111]
Human RIP1
  Ki: 18.5 nM
Jurkat (FADD−/−) cells; [1]
  IC50: 1.16e-09 M
